ChEMBL document CHEMBL3217693, “Synthesis and biological evaluation of 7-arylindoline-1-benzenesulfonamides as a novel class of potent anticancer agents” (Medchemcomm, 2010)

How the values were obtained:
KB = assay: Antiproliferative activity against human KB cells assessed as inhibition of cell growth after 72 hrs by methylene blue dye assay; type: functional, cell-based
[1] = Antiproliferative activity against human MKN45 cells assessed as inhibition of cell growth after 72 hrs by methylene blue dye assay; type: functional, cell-based; settings: MKN-45, 72 h
[2] = Antiproliferative activity against human H460 cells assessed as inhibition of cell growth after 72 hrs by methylene blue dye assay; type: functional, cell-based; settings: NCI-H460, 72 h
[3] = Antiproliferative activity against human KB-VIN10 cells overexpressing P-gp 170/MDR assessed as inhibition of cell growth after 72 hrs by methylene blue dye assay; type: functional, cell-based; settings: KB-VIN10, 72 h
HT-29 = assay: Antiproliferative activity against human HT-29 cells assessed as inhibition of cell growth after 72 hrs by methylene blue dye assay; type: functional, cell-based; settings: HT-29, 72 h
Tubulin [4] = target: T1, Tubulin (UniProt P68371+Q9H4B7+P0DPH7+P68366+Q13509+Q71U36+P04350+Q3ZCM7+P07437+P68363+Q9BQE3+Q6PEY2+Q13885+Q9BVA1+Q9BUF5); assay: Displacement of [3H]colchicine from long-chain biotin-labeled tubulin (unknown origin) at 1 uM after 2 hrs by competition binding scintillation proximity assay; type: protein-complex assay; settings: Homo sapiens
Tubulin [5] = target: Tubulin (Bos taurus, UniProt Q6B856+Q862L2+Q862F3); assay: Inhibition of bovine brain microtubule-associated protein rich tubulin polymerization by turbidimetric assay
Tubulin [6] = target: T1, Tubulin; assay: Displacement of [3H]colchicine from long-chain biotin-labeled tubulin (unknown origin) at 5 uM after 2 hrs by competition binding scintillation proximity assay; type: protein-complex assay; settings: Homo sapiens

Row | Compound | IC50 (KB) [nM] | IC50 [1] [nM] | IC50 [2] [nM] | IC50 [3] [nM] | IC50 (HT-29) [nM] | inhibition (Tubulin [4]) [%] | IC50 (Tubulin [5]) [nM] | inhibition (Tubulin [6]) [%]
1 | COc1ccc(S(=O)(=O)N2CCc3cccc(-c4ccc(F)nc4)c32)cc1 | 143 | 145 | 135 | 151 | 108 |  |  | 
2 | COc1ccc(S(=O)(=O)N2CCc3cccc(-c4cccnc4)c32)cc1 | 95.9 | 68.5 | 89.6 | 84.5 | 76.3 |  |  | 
3 | COc1ccc(S(=O)(=O)N2CCc3cccc(-c4cccc(F)c4)c32)cc1 | 98.5 | 84.7 | 166 | 92.4 | 119 |  |  | 
4 | COc1ccc(S(=O)(=O)N2CCc3cccc(-c4ccc(F)c(F)c4)c32)cc1 | 45 | 55.5 | 46 | 46 | 57 | 52 | 2300 | 72
5 | COc1cc2c(c(OC)c1OC)-c1ccc(OC)c(=O)cc1[C@@H](NC(C)=O)CC2 [COLCHICINE] |  |  |  | 121 |  |  |  | 
6 | COc1ccc(S(=O)(=O)N2CCc3cccc(-c4ccc(C#N)cc4)c32)cc1 | 31.1 | 17.2 | 29.5 | 29.2 | 24.2 | 81 | 1500 | 92
7 | COc1ccc(S(=O)(=O)N2CCc3cccc(-c4ccc(N)cc4)c32)cc1 | 249 | 162 | 288 | 262 | 300 |  |  | 
8 | COc1ccc(S(=O)(=O)N2CCc3cccc(-c4cc(OC)c(OC)c(OC)c4)c32)cc1 | 3690 | 1080 | 6340 | 4670 | 5100 |  |  | 
9 | COc1ccc(S(=O)(=O)N2CCc3cccc(-c4c(F)c(F)c(F)c(F)c4F)c32)cc1 | 4040 | 1780 | 4760 | 4630 | 3900 |  |  | 
10 | COc1ccc(S(=O)(=O)N2CCc3cccc(-c4ccc(F)cc4)c32)cc1 | 86 | 79 | 95.5 | 94.6 | 85.5 | 59 | 2500 | 73
11 | COc1ccc(S(=O)(=O)N2CCc3cccc(-c4ccncc4)c32)cc1 | 96 | 69.5 | 101 | 106 | 87.5 | 54 | 2200 | 72
12 | COc1ccc(-c2cccc3c2N(S(=O)(=O)c2ccc(OC)cc2)CC3)cc1 | 337 | 211 | 302 | 352 | 277 |  |  | 
13 | COc1ccc(S(=O)(=O)N2CCc3cccc(-c4ccc(N(C)C)cc4)c32)cc1 | 538 | 237 | 556 | 553 | 467 |  |  | 
14 | COc1ccc(S(=O)(=O)N2CCc3cccc(-c4ccco4)c32)cc1 | 82 | 42 | 94.5 | 79.2 | 62.5 | 43 | 2600 | 68
15 | COc1ccc(S(=O)(=O)N2CCc3cccc(-c4ccc([N+](=O)[O-])cc4)c32)cc1 | 52.5 | 34 | 53.1 | 51.3 | 51.8 | 56 | 1700 | 74
16 | COc1ccc(S(=O)(=O)N2CCc3cccc(-c4ccc(O)cc4)c32)cc1 | 129 | 82.6 | 114 | 123 | 133 |  |  | 
17 | COc1ccc(S(=O)(=O)N2CCc3cccc(-c4cccs4)c32)cc1 | 214 | 165 | 229 | 251 | 200 |  |  | 
18 | COc1ccc(S(=O)(=O)N2CCc3cccc(-c4ccccc4)c32)cc1 | 120 | 117 | 212 | 107 | 96.5 |  |  | 
